This series is described as follows: Appearance of solution upon dilution of peptide in assay buffer (solubility). The conditions noted are these: 10 mM DMSO stock diluted in assay buffer. The class given is physicochemical. On the procedure: The cleavage sites ^193Arg↓Ala^194 and ^195Glu↓Ala^196 were chosen to design the FRET substrate ATS7FP0 (Table 1). This peptide covers residues Ala^188-Ala^198 in LTBP4S and contains a FAM/TAMRA fluorophore/quencher pair. The quencher is covalently linked to the ε amino group of an extra C-terminal lysine residue. Stock solutions were routinely prepared at 10 mM in DMSO and stored at −80 °C. […] This was most likely due to the high content in hydrophobic amino acids of this peptide, which added to the hydrophobicity of the fluorophore/quencher pair. Nevertheless, ATS7FP0 generated fluorescence upon cleavage by ADAMTS-7 (Figure 2(A)). With the aim to improve both solubility and cleavage rate by ADAMTS-7, seven additional peptides were designed using the sequence of ATS7FP0 as a starting point. The N-terminal alanine residue present in ATS7FP0 was removed to generate peptide ATS7FP7 with a reduced aliphatic index (Table 1). […] To assess the effect of a P4′ proline residue on the cleavage rate, peptide ATS7FP7 was modified to generate ATS7FP8. […] Since we also determined that ADAMTS-7 prefers arginine in P1 (Figure 1(D)), we mutated one alanine residue in the parental sequence into arginine with the aim to improve both cleavage rate and hydrophilicity, thus generating peptide ATS7FP3. […]

On to “Glu-Ala-Ala-Ala-Arg↓Ala-Glu↓Ala-Ala-Ala-Lys [ATS7FP7]”, for which the “appearance of solution upon dilution in the assay buffer (solubility)” value is “homogeneous”.

The values above are taken from article PMC8494430, “Development of a fluorogenic ADAMTS-7 substrate” (Journal of Enzyme Inhibition and Medicinal Chemistry, 2021).
